Measurements: patent US20170349532A1, “CATIONIC LIPID” (Kyowa Hakko Kirin Co., Ltd., priority 2011, published 2017)

experiment: Average particle diameter of preparation (Zetasizer Nano ZS); assay type: physicochemical; conditions: Comparative Examples 1 to 8, prepared as Example 118 with apo-b siRNA
Method in brief: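 Lipid nanoparticles formed by mixing cationic lipid/PEG-DMPE Na/DSPC/cholesterol (8.947/1.059/5.708/13.697 mmol/L in 90% ethanol, 37 °C) with apo-b siRNA in Tris-EDTA/citrate buffer pH 5.0, then diluted with citrate/NaCl pH 6.0 and DPBS to 10 μM siRNA. Mean complex diameter measured by dynamic light scattering.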

With CCCCCCCC/C=C\CCCCCCCC(=O)OCC(C[N+](C)(C)C)OC(=O)CCCCCCC/C=C\CCCCCCCC.[Cl-] (stereo not shown) [Compound A-1, N(2,3-di-(9-(Z)-octadecenoyloxy))-prop-1-yl-N,N,N-trimethylammonium chloride, reference compound] the “average particle diameter of the complex between the cationic lipis and the nucleic acid in the preparation” value was 104.0 nm.

same assay, conditions: average particle diameter of cationic lipid/nucleic acid complex; Example 118 preparation: compound/PEG-DMPE Na/DSPC/cholesterol with apo-b siRNA

Compared with CCCCCCCC/C=C\CCCCCCCCOCCN(CCOCCCCCCCC/C=C\CCCCCCCC)C(=O)[C@@H](N)CCCN [Compound 93, (S)-2,5-Diamino-N,N-bis(2-((Z)-octadec-9-enyloxy)ethyl)pentanamido], CCCCCCCC/C=C\CCCCCCCCOCCN(CCOCCCCCCCC/C=C\CCCCCCCC)C(=O)[C@@H](N)CO [Compound 91, (S)-2-Amino-3-hydroxy-N,N-bis(2-((Z)-octadec-9-enyloxy)ethyl)propanamido] is lower in “Particle diameter of Preparetion” value: 135.1 nm for the first, 125.4 nm for the second.

Going from CCCCCCCC/C=C\CCCCCCCC(=O)OC[C@@H]1CNC[C@H]1COC(=O)CCCCCCC/C=C\CCCCCCCC (relative stereo) [Compound 104, trans-3,4-bis(((Z)-Octadec-9-enoyloxy)methyl)pyrrolidine] to CCCCCC/C=C\CCCCCCCCOC[C@@H]1CNC[C@H]1COCCCCCCCC/C=C\CCCCCC (relative stereo) [Compound 44, trans-3,4-bis(((Z)-Hexadec-9-enyloxy)methyl)pyrrolidine], the “Particle diameter of Preparetion” value rises from 141.5 nm to 143.5 nm.

Going from CCCCC/C=C\C/C=C\CCCCCCCCO[C@@H]1CN(C(=O)CCN)C[C@H]1OCCCCCCCC/C=C\C/C=C\CCCCC [Compound 62, (3R,4R)-1-(3-Aminopropanoyl)-3,4-bis((9Z,12Z)-octadec-9,12-dienyloxy)pyrrolidine] to CCCCC/C=C\C/C=C\CCCCCCCCO[C@@H]1CN(C(=O)CCN(C)C)C[C@H]1OCCCCCCCC/C=C\C/C=C\CCCCC [Compound 28, (3R,4R)-1-(3-(Dimethylamino)propanoyl)-3,4-bis((9Z,12Z)-octadec-9,12-dienyloxy)pyrrolidine], the “Particle diameter of Preparetion” value falls from 151.3 nm to 132.2 nm.

Going from CCCCCCCCCCCCCCCCOCCNCCOCCCCCCCCCCCCCCCC [Compound 70, bis(2-(Hexadecyloxy)ethyl)amine] to CCCCCCCCCCCCCCCCOCCN(C)CCOCCCCCCCCCCCCCCCC [Compound 76, N,N-bis(2-(Hexadecyloxy)ethyl)-N-methylamine], the “Particle diameter of Preparetion” value falls from 145.6 nm to 133.6 nm.

Going from CCCCCCCC/C=C\CCCCCCCCOCCN(CCOCCCCCCCC/C=C\CCCCCCCC)C(=O)CN [Compound 86, 2-Amino-N,N-bis(2-((Z)-octadec-9-enyloxy)ethyl)acetamide] to CCCCCCCC/C=C\CCCCCCCCOCCN(C)CCOCCCCCCCC/C=C\CCCCCCCC [Compound 33, N-Methyl-N,N-bis(2-((Z)-octadec-9-enyloxy)ethyl)amine], the “Particle diameter of Preparetion” value rises from 128.4 nm to 152.1 nm.

Going from CCCCC/C=C\C/C=C\CCCCCCCCCCO[C@@H]1CNC[C@H]1OCCCCCCCCCC/C=C\C/C=C\CCCCC [Compound 8, (3R,4R)-3,4-bis((11Z,14Z)-Icos-11,14-dienyloxy)pyrrolidine] to CCCCC/C=C\C/C=C\CCCCCCCCCCO[C@@H]1CN(C)C[C@H]1OCCCCCCCCCC/C=C\C/C=C\CCCCC [Compound 16, (3R,4R)-3,4-bis((11Z,14Z)-Icos-11,14-dienyloxy)-1-methylpyrrolidine], the “Particle diameter of Preparetion” value falls from 143.8 nm to 143.2 nm.

Compared with CCCCCCCCCCCCCCCCCCOCCN(C)CCOCCCCCCCCCCCCCCCCCC [Compound 37, N-Methyl-N,N-bis(2-(octadecyloxy)ethyl)amine], CCCCCCCCCCC/C=C\CCCCCOCCN(C)CCOCCCCC/C=C\CCCCCCCCCCC [Compound 36, N-Methyl-N,N-bis(2-((Z)-octadec-6-enyloxy)ethyl)amine] is lower in “Particle diameter of Preparetion” value: 151.3 nm for the first, 137.2 nm for the second.

First: CCCCCCCC/C=C\CCCCCCCC(=O)OCCN(CCOC(=O)CCCCCCC/C=C\CCCCCCCC)C(=O)CN(C)C [Compound 98, 2-(Dimethylamino)-N,N-bis(2-((Z)-octadec-9-enoyloxy)ethyl)acetamide]
Second: CCCCC/C=C\C/C=C\CCCCCCCC(=O)OCCN(CCOC(=O)CCCCCCC/C=C\C/C=C\CCCCC)C(=O)CN [Compound 96, 2-Amino-N,N-bis(2-((9Z,12Z)-octadec-9,12-dienoyloxy)ethyl)acetamide]
The “Particle diameter of Preparetion” value of the first is lower: 124.1 nm for the first, 133.2 nm for the second.

Going from CCCCC/C=C\C/C=C\CCCCCCCCO[C@@H]1CN(C(=O)[C@@H](N)CCCN)C[C@H]1OCCCCCCCC/C=C\C/C=C\CCCCC [Compound 63, (3R,4R)-1-((S)-2,5-Diaminopentanoyl)-3,4-bis((9Z,12Z)-octadec-9,12-dienyloxy)pyrrolidine] to CCCCC/C=C\C/C=C\CCCCCCCCO[C@@H]1CN(C(=O)[C@@H](N)CCCCN)C[C@H]1OCCCCCCCC/C=C\C/C=C\CCCCC [Compound 31, (3R,4R)-1-((5)-2,6-Diaminohexanoyl)-3,4-bis((9Z,12Z)-octadec-9,12-dienyloxy)pyrrolidine], the “Particle diameter of Preparetion” value falls from 143.0 nm to 100.7 nm.

Going from CCCCCC/C=C\CCCCCCCCCCO[C@@H]1CNC[C@H]1OCCCCCCCCCC/C=C\CCCCCC [Compound 41, (3R,4R)-3,4-bis((Z)-Octadec-11-enyloxy)pyrrolidine] to CCCCCCCC/C=C\CCCCCCCCO[C@@H]1CN(C)C[C@H]1OCCCCCCCC/C=C\CCCCCCCC [Compound 12, (3R,4R)-1-Methyl-3,4-bis((Z)-octadec-9-enyloxy)pyrrolidine], the “Particle diameter of Preparetion” value rises from 134.4 nm to 161.3 nm.

First: CCCCCCCC/C=C\CCCCCCCC(=O)O[C@@H]1CN(C(=O)CCN(C)C)C[C@H]1OC(=O)CCCCCCC/C=C\CCCCCCCC [Compound 30, (3R,4R)-1-(3-(Dimethylamino)propanoyl)pyrrolidine-3,4-diyl di((Z)-octadec-9-enoate)]
Second: CCCCCCCC/C=C\CCCCCCCCOCCN(CCOCCCCCCCC/C=C\CCCCCCCC)CCC(=O)N(C)C [Compound 85, 3-(bis(2-((2)-Octadec-9-enyloxy)ethyl)amino)-N,N-dimethylpropanamide]
The “Particle diameter of Preparetion” value of the first is higher: 132.7 nm for the first, 120.1 nm for the second.

Going from CCCC/C=C\CCCCCCCCOCCN(C)CCOCCCCCCCC/C=C\CCCC [Compound 75, N-Methyl-N,N-bis(2-((Z)-Tetradec-9-enyloxy)ethyl)amine] to CCCCCC/C=C\CCCCCCCCCCOCCN(C)CCOCCCCCCCCCC/C=C\CCCCCC [Compound 77, N-Methyl-N,N-bis(2-((Z)-octadec-11-enyloxy)ethyl)amine], the “Particle diameter of Preparetion” value falls from 124.0 nm to 119.7 nm.

Going from CCCCCC/C=C\CCCCCCCCOCCNCCOCCCCCCCC/C=C\CCCCCC [Compound 72, bis(2-((Z)-Hexadec-9-enyloxy)ethyl)amine] to CCCCC/C=C\C/C=C\CCCCCCCCO[C@@H]1CN(CC(O)COC)C[C@H]1OCCCCCCCC/C=C\C/C=C\CCCCC (stereo partly drawn) [Compound 55, 1-(3R,4R)-3,4-bis(((9Z,12Z)-Octadec-9,12-dienyloxy)pyrrolidine-1-yl)-3-methoxypropan-2-ol], the “Particle diameter of Preparetion” value rises from 130.6 nm to 139.6 nm.

With CCCCCCCCCCCCCCCCO[C@@H]1CNC[C@H]1OCCCCCCCCCCCCCCCC [Compound 38, (3R,4R)-3,4-bis(Hexadecyloxy)pyrrolidine] the “Particle diameter of Preparetion” value was 157.2 nm.
